Reference: patent publication US20250074970A1, “METHOD OF PURIFYING IMMUNOGLOBULIN G AND USES THEREOF” (CSL Behring AG, priority 2021, published 2025)

Tested on: Vesicular stomatitis virus (VSV)
Assay type: cell-based
Conditions: 30 mM final concentration of OG at 5° C., VSV spiked CRP

CCCCCCCCO[C@@H]1O[C@H](CO)[C@@H](O)[C@H](O)[C@H]1O [OG, N-Octyl-β-D-Glucopyranoside]
log 10 reduction factor (LRF): ≥ 5.3
